Test results: patent publication US8318504B2, “MRP2 efflux pathway prognostic method” (priority 2009, dated 2012)

Assays:
OATP2B1 = target: T1, OATP2B1 (Homo sapiens, UniProt O94956); test: Uptake of CLF into CHO cells expressing OATP2B1; type: cell-based; settings: 1 μmol/L CLF, 1 or 5 minutes
T1 construct: expressed in transfected cells; host or cells: CHO cells (stably transfected; Treiber et al. 2007)
T1 sequence (O94956 1-709): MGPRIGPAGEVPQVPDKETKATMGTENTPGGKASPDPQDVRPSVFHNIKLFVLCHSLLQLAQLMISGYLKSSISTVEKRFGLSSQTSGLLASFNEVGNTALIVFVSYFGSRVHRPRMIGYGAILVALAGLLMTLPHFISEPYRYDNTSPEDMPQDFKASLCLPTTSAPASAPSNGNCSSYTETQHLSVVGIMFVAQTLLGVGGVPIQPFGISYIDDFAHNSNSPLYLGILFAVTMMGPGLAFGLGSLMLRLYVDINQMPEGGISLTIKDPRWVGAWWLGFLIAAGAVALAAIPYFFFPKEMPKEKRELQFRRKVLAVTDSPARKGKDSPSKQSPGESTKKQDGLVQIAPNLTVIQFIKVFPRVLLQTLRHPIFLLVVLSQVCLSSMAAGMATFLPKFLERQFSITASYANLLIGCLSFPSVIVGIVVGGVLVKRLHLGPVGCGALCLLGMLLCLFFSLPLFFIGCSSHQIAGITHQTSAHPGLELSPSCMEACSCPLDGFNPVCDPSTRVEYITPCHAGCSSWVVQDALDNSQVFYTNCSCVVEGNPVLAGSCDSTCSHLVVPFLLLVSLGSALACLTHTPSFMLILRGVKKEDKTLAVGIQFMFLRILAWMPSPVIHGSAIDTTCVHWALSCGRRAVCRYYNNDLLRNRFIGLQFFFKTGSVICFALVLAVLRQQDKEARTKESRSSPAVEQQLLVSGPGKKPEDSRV
Description: cDNA for human NTCP [Hagenbuch et al., J Clin Invest 1994 March; 93(3): 1326-1331] was cut with EcoRV and HindI and the coding region ligated into pcDNA5/FRT (Invitrogen, Life-Technologies, Carlsbad, Calif.). CHO FlpIn cells (Invitrogen, Life-Technologies) were transfected with the resulting construct using Lipofectamine® 2000 (Invitrogen, Life-Technologies). Stably transfected cells were selected with 550 μg Hygromycin-B in HAM-F12 medium (Gibco, Invitrogen, Life-Technologies). Transfected cells were cloned with the limiting dilution method. […] To further characterize the cloned cells, immunofluorescence localization of NTCP using a polyclonal antibody against NTCP [Kullak-Ublick G et al., Gastroenterology 1997 October; 113(4):1295-1305] was performed as described by Huber R D et al. [Am J Physiol Cell Physiol 2007 February; 292(2):[…]-[…]]. CHO cells expressing OATP1B1, OATP1B3 and OATP2B1 were described previously [Treiber et al., DMD 35:1400-1407, 2007]. […] After complete solubilization, 1.5 ml was used to measure fluorescence in a Perkin-Elmer LS-5 luminescence-spectrometer set at λexe 486 nm (slit 10 nm) and λem 520 nm (slit 5 nm). Protein was determined with the bicinchoninic acid method using a kit from Interchim (Montfuçon, France). […]

wild type CHO cells = test: Effect of CLF on substrate uptake in wild type CHO cells; type: cell-based
Description: For all transport experiments, cells grown on 3 cm culture dishes were cultured for 24 hours in media supplemented with 5 mmol/L sodium-butyrate to increase expression levels of transfected transporters [Palermo D P et al., J Biotechnol 1991 June; 19(1):35-47]. • Transport experiments with uptake of radioactively labeled substrates: These experiments were performed as described by Huber R D et al. [Am J Physiol Cell Physiol 2007 February; 292(2):C795-C806]. • Transport experiments with uptake of CLF: Uptake was performed in the same buffers as for the radioactive substrates above. For visualization of CLF uptake, cells were immediately inspected with a Leica-DM-IRBE-inverted-microcope (Leica-Microsystems, Wetzlar, Germany) equipped with a Hamamatsu-ORKA-ER-camera (Hamamatsu-Photonoics, Japan). To determine uptake of CLF, cells were solubilized by the addition of 2 ml 1% (w/v) Triton-X-100. After complete solubilization, 1.5 ml was used to measure fluorescence in a Perkin-Elmer LS-5 luminescence-spectrometer set at λexe 486 nm (slit 10 nm) and λem 520 nm (slit 5 nm). Protein was determined with the bicinchoninic acid method using a kit from Interchim (Montfuçon, France). Transport data from OATP expressing cell lines were corrected for binding by subtracting 0 min time points (blank values) and except for FIGS. 2B and 2C were normalized per minute. […]

## CC(CCC(=O)NC(CCCCNC(=S)Nc1ccc(-c2c3ccc(=O)cc-3oc3cc(O)ccc23)c(C(=O)O)c1)C(=O)O)C1CCC2C3C(O)CC4CC(O)CCC4(C)C3CC(O)C12C (centres unmarked) [CLF, cholyl lysyl fluorescein]
OATP2B1
  uptake of CLF into OATP2B1 cells: no uptake
Wild type CHO cells
  influence of CLF on substrate uptake in wild type cells: no influence on substrate uptake
